Data taken from ChEMBL document CHEMBL5104162, “Potent inhibitory activity of hydroxylated 2-benzylidene-3,4-dihydronaphthalen-1(2H)-ones on LPS-stimulated reactive oxygen species production in RAW 264.7 macrophages” (Bioorg Med Chem Lett, 2022).

Assays:
[1] = Cytotoxicity against mouse RAW264.7 cells assessed as cell viability at 10 uM by MTS assay relative to control
RAW264.7 = test: Inhibition of ROS production in LPS-induced mouse RAW264.7 cells; format: functional, cell-based

Structure (SMILES) | IC50 (RAW264.7) | viability at 10 µM [1]
O=C1/C(=C/c2ccc(O)cc2)CCc2cc(O)ccc21 |  | < 90%
O=C1/C(=C/c2ccncc2)CCc2ccc(O)cc21 | 2.34 µM | > 90%
O=C1/C(=C/c2ccccc2Br)CCc2cc(O)ccc21 | 1.07 µM | > 90%
O=C1/C(=C/c2cccc(O)c2)CCc2c(O)cccc21 |  | < 90%
O=C1/C(=C/c2ccccc2)CCc2c(O)cccc21 |  | < 90%
O=C1/C(=C/c2ccc(O)cc2)CCc2ccc(O)cc21 |  | < 90%
O=C1/C(=C/c2ccc(Cl)cc2)CCc2cc(O)ccc21 | 2.48 µM | > 90%
O=C1/C(=C/c2ccc(F)cc2)CCc2cc(O)ccc21 | 1.37 µM | > 90%
O=C1/C(=C/c2cccc(OC(F)(F)F)c2)CCc2cc(O)ccc21 | 0.52 µM | > 90%
O=C1/C(=C/c2ccccc2OC(F)(F)F)CCc2cc(O)ccc21 |  | < 90%
O=C1/C(=C/c2ccccc2Br)CCc2ccc(O)cc21 | 0.5 µM | > 90%
O=C1/C(=C/c2ccccc2C(F)(F)F)CCc2cc(O)ccc21 |  | < 90%
O=C1/C(=C/c2cccc(OC(F)(F)F)c2)CCc2c(O)cccc21 |  | < 90%
O=C1/C(=C/c2ccc(C(F)(F)F)cc2)CCc2cc(O)ccc21 | 3.26 µM | > 90%
O=C1/C(=C/c2ccccc2Cl)CCc2ccc(O)cc21 | 0.27 µM | > 90%
O=C1/C(=C/c2ccc(O)cc2)CCc2c(O)cccc21 |  | < 90%
O=C1/C(=C/c2cccnc2)CCc2ccc(O)cc21 | 3.04 µM | > 90%
O=C1/C(=C/c2ccc(F)cc2)CCc2ccc(O)cc21 | 0.84 µM | > 90%
O=C1/C(=C/c2ccc(C(F)(F)F)cc2)CCc2ccc(O)cc21 | > 10 µM | > 90%
O=C1/C(=C/c2ccccc2F)CCc2cc(O)ccc21 | 1.74 µM | > 90%
O=C1/C(=C/c2ccccc2C(F)(F)F)CCc2ccc(O)cc21 | 1.02 µM | > 90%
O=C1/C(=C/c2ccc(Cl)cc2)CCc2c(O)cccc21 |  | < 90%
O=C1/C(=C/c2ccc(OC(F)(F)F)cc2)CCc2c(O)cccc21 |  | < 90%

Structure (SMILES) | IC50 (RAW264.7) | viability at 10 µM [1]
O=C1/C(=C/c2ccccn2)CCc2cc(O)ccc21 | > 10 µM | > 90%
O=C1/C(=C/c2ccc(OC(F)(F)F)cc2)CCc2cc(O)ccc21 | 1.35 µM | > 90%
O=C1/C(=C/c2ccccc2F)CCc2c(O)cccc21 |  | < 90%
O=C1/C(=C/c2cccc(Cl)c2)CCc2c(O)cccc21 |  | < 90%
O=C1/C(=C/c2ccc(Br)cc2)CCc2c(O)cccc21 |  | < 90%
O=C1/C(=C/c2ccccc2O)CCc2c(O)cccc21 |  | < 90%
O=C1/C(=C/c2cccc(C(F)(F)F)c2)CCc2cc(O)ccc21 | 0.18 µM | > 90%
O=C1/C(=C/c2ccc(F)cc2)CCc2c(O)cccc21 |  | < 90%
O=C1/C(=C/c2ccccc2F)CCc2ccc(O)cc21 | 1.35 µM | > 90%
O=C1/C(=C/c2ccccc2Cl)CCc2cc(O)ccc21 | 1.91 µM | > 90%
O=C1/C(=C/c2cccc(OC(F)(F)F)c2)CCc2ccc(O)cc21 |  | < 90%
O=C1/C(=C/c2cccnc2)CCc2cc(O)ccc21 | 2.03 µM | > 90%
O=C1/C(=C/c2cccc(C(F)(F)F)c2)CCc2ccc(O)cc21 |  | < 90%
O=C1/C(=C/c2ccc(OC(F)(F)F)cc2)CCc2ccc(O)cc21 | 0.98 µM | > 90%
O=C1/C(=C/c2ccc(Cl)cc2)CCc2ccc(O)cc21 | 1.1 µM | > 90%
O=C1/C(=C/c2ccccc2OC(F)(F)F)CCc2c(O)cccc21 |  | < 90%
O=C1/C(=C/c2ccccc2O)CCc2ccc(O)cc21 |  | < 90%
O=C1/C(=C/c2ccc(C(F)(F)F)cc2)CCc2c(O)cccc21 |  | < 90%
O=C1/C(=C/c2ccccc2O)CCc2cc(O)ccc21 | 0.55 µM | > 90%
O=C1/C(=C/c2ccccn2)CCc2ccc(O)cc21 |  | < 90%
O=C1/C(=C/c2ccccc2OC(F)(F)F)CCc2ccc(O)cc21 | 0.42 µM | > 90%
O=C1/C(=C/c2cccc(F)c2)CCc2c(O)cccc21 |  | < 90%

Now from value to compound, other results behind:

IC50 (RAW264.7) | Structure (SMILES) | viability at 10 µM [1]
0.83 µM | O=C1/C(=C/c2cccc(F)c2)CCc2ccc(O)cc21 | > 90%
1.52 µM | O=C1/C(=C/c2ccc(Br)cc2)CCc2cc(O)ccc21 | > 90%
0.8 µM | O=C1/C(=C/c2ccc(Br)cc2)CCc2ccc(O)cc21 | > 90%
1.97 µM | O=C1/C(=C/c2cccc(C(F)(F)F)c2)CCc2c(O)cccc21 | > 90%
1.7 µM | O=C1/C(=C/c2cccc(Br)c2)CCc2c(O)cccc21 | > 90%
1.28 µM | O=C1/C(=C/c2ccccc2Cl)CCc2c(O)cccc21 | > 90%
0.48 µM | O=C1/C(=C/c2cccc(Br)c2)CCc2ccc(O)cc21 | > 90%
0.74 µM | O=C1/C(=C/c2ccccn2)CCc2c(O)cccc21 | > 90%
0.71 µM | O=C1/C(=C/c2ccccc2)CCc2ccc(O)cc21 | > 90%
0.21 µM | O=C1/C(=C/c2cccc(Cl)c2)CCc2ccc(O)cc21 | > 90%
2.95 µM | O=C1/C(=C/c2cccnc2)CCc2c(O)cccc21 | > 90%
1.23 µM | O=C1/C(=C/c2cccc(F)c2)CCc2cc(O)ccc21 | > 90%
1.24 µM | O=C1/C(=C/c2ccccc2Br)CCc2c(O)cccc21 | > 90%
3.51 µM | O=C1/C(=C/c2cccc(O)c2)CCc2cc(O)ccc21 | > 90%
1.32 µM | O=C1/C(=C/c2ccccc2)CCc2cc(O)ccc21 | > 90%
1.14 µM | O=C1/C(=C/c2cccc(Br)c2)CCc2cc(O)ccc21 | > 90%
0.81 µM | O=C1/C(=C/c2cccc(O)c2)CCc2ccc(O)cc21 | > 90%
3.83 µM | O=C1/C(=C/c2ccccc2C(F)(F)F)CCc2c(O)cccc21 | > 90%
1.75 µM | O=C1/C(=C/c2cccc(Cl)c2)CCc2cc(O)ccc21 | > 90%
4.17 µM | O=C1/C(=C/c2ccncc2)CCc2c(O)cccc21 | > 90%
